Columns and labels:
rice = assay: Test B flooded paddy test; format: in vivo, Oryza sativa; conditions: Oryza sativa; Flood, 250 g ai/ha; 0 to 100 scale where 0 is no effect and 100 is complete control; read-out: Plant response rating, Rice
Outline: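 Post-emergence paddy-water application at the 2-leaf stage, with 3 cm flood kept for the whole test. Response was judged visually relative to controls after 13 to 15 greenhouse days, 0 indicating no effect and 100 complete control.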

blackgrass [1] = assay: Test C preemergence; format: in vivo, Alopecurus myosuroides; conditions: Alopecurus myosuroides, pre-emergence
Outline: (§1)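 Rated visually on 0–100 (100 = complete control) after 13–15 days under glass. Treatments went onto freshly seeded loam/sand soil or onto emerged plants at the 1- to 4-leaf stage, using a surfactant-containing solvent formulation.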

wheat, winter = assay: Test C preemergence; format: in vivo, Triticum aestivum; conditions: Triticum aestivum, pre-emergence
Outline: as §1

ragweed = assay: Test C postemergence; format: in vivo, Ambrosia elatior; conditions: Ambrosia artemisiifolia, post-emergence
Outline: as §1

soybean [2] = assay: Test C preemergence; format: in vivo, Glycine max; conditions: Glycine max, pre-emergence
Outline: as §1

large (Lg) crabgrass = assay: Test C preemergence; format: in vivo, Digitaria sanguinalis; conditions: Digitaria sanguinalis, pre-emergence
Outline: as §1

barnyardgrass = assay: Test A preemergence; format: in vivo, Echinochloa crus-galli; conditions: Echinochloa crus-galli, pre-emergence, 240 h, read-out: Barnyardgrass plant response rating
Outline: (§2)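 Compounds in non-phytotoxic solvent with surfactant applied as soil spray preemergence, or postemergence to plants 2-10 cm at one- to two-leaf stage, in loam/sand. After approximately 10 days in greenhouse, injury rated visually versus untreated controls, 0 (no effect) to 100 (complete control).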

blackgrass [3] = assay: Test C postemergence; format: in vivo, Alopecurus myosuroides; conditions: Alopecurus myosuroides, post-emergence
From the text: (§3) Seeds of plant species selected from blackgrass (Alopecurus myosuroides), Italian ryegrass (Lolium multiflorum), wheat, winter (winter wheat, Triticum aestivum), galium (catchweed bedstraw, Galium aparine), corn (Zea mays), large (Lg) crabgrass (Digitaria sanguinalis), giant foxtail (Setaria faberii), johnsongrass (Sorghum halepense), lambsquarters (Chenopodium album), morningglory (Ipomoea coccinea), yellow nutsedge (Cyperus esculentus), pigweed (Amaranthus retroflexus), ragweed (common ragweed, Ambrosia elatior), soybean (Glycine max), barnyardgrass (Echinochloa crus-galli), oilseed rape (Brassica napus), waterhemp (common waterhemp, Amaranthus rudis), kochia (Kochia scoparia), wild oat (Avena fatua), surinam grass (Brachiaria decumbens), foxtail, green (green foxtail, Setaria viridis), goosegrass (Eleusine indica), bromegrass, downy (downy bromegrass, Bromus tectorum), nightshade (eastern black nightshade, Solanum ptycanthum), cocklebur (common cocklebur, Xanthium strumarium), cupgrass, woolly (woolly cupgrass, Eriochloa villosa), bermudagrass (Cynodon dactylon), sunflower, (common oilseed sunflower, Helianthus annuus), Russian thistle (Salsola kali), and velvetleaf (Abutilon theophrasti) were planted into a blend of loam soil and sand and treated preemergence with test chemicals formulated in a non-phytotoxic solvent mixture which included a surfactant.
(§4) At the same time, plants selected from these crop and weed species and also barley, winter (winter barley, Hordeum vulgare), windgrass (Apera spica-venti), chickweed (common chickweed, Stellaria media), deadnettle (henbit deadnettle, Lamium amplexicaule), and canarygrass (littleseed canarygrass, Phalaris minor) were planted in pots containing Redi-Earth® planting medium (Scotts Company, 14111 Scottslawn Road, Marysville, Ohio 43041) comprising spaghnum peat moss, vermiculite, wetting agent and starter nutrients and treated with postemergence applications of test chemicals formulated in the same manner. Plants ranged in height from 2 to 18 cm (1- to 4-leaf stage) for postemergence treatments. Treated plants and controls were maintained in a greenhouse for 13 to 15 days, after which time all species were compared to controls and visually evaluated. Plant response ratings, summarized in Table C, are based on a scale of 0 to 100 where 0 is no effect and 100 is complete control. A dash (-) response means no test result.

soybean [4] = assay: Test C postemergence; format: in vivo, Glycine max; conditions: Glycine max, post-emergence
Outline: as §1

giant foxtail = assay: Test C postemergence; format: in vivo, Setaria faberii; conditions: Setaria faberi, post-emergence
From the text: as §3, §4

wheat = assay: Test A postemergence; format: in vivo, Triticum aestivum; conditions: Triticum aestivum, post-emergence, 240 h
Outline: as §2

morningglory = assay: Test A postemergence; format: in vivo, Ipomoea spp.; conditions: Ipomoea, post-emergence, 240 h
Outline: as §2

Compound: Clc1cnc(Oc2ccccc2-n2cc(Br)cn2)nc1 [Compound 7, 2-[2-(4-bromo-1H-pyrazol-1-yl)phenoxy]-5-chloropyrimidine]
- plant injury at 250 g/ha (rice): 20%
- pest or weed control at 62 g/ha (blackgrass [1]; 62 g ai/ha, preemergence, scale 0 (no effect) to 100 (complete control), read-out: Blackgrass plant response rating): 10%
- pest or weed control at 125 g/ha (blackgrass [1]; 125 g ai/ha, preemergence, scale 0 (no effect) to 100 (complete control), read-out: Blackgrass plant response rating): 50%
- pest or weed control at 250 g/ha (blackgrass [1]; 250 g ai/ha, preemergence, scale 0 (no effect) to 100 (complete control), read-out: Blackgrass plant response rating): 85%
- pest or weed control at 31 g/ha (blackgrass [1]; Preemergence, 31 g ai/ha, scale 0 to 100, 0 no effect, 100 complete control, read-out: Plant response rating, Blackgrass): 5%
- plant injury at 62 g/ha (wheat, winter; 62 g ai/ha, preemergence, scale 0 (no effect) to 100 (complete control), read-out: Wheat plant response rating): 5%
- plant injury at 125 g/ha (wheat, winter; 125 g ai/ha, preemergence, scale 0 (no effect) to 100 (complete control), read-out: Wheat plant response rating): 10%
- plant injury at 250 g/ha (wheat, winter; 250 g ai/ha, preemergence, scale 0 (no effect) to 100 (complete control), read-out: Wheat plant response rating): 40%
- plant injury at 31 g/ha (wheat, winter; Preemergence, 31 g ai/ha, scale 0 to 100, 0 no effect, 100 complete control, read-out: Plant response rating, Wheat): 0%
- pest or weed control at 125 g/ha (ragweed; 125 g ai/ha, postemergence, read-out: Plant response rating (0 to 100), Ragweed): 55%
- pest or weed control at 250 g/ha (ragweed; 250 g ai/ha, postemergence, read-out: Plant response rating (0 to 100), Ragweed): 60%
- pest or weed control at 31 g/ha (ragweed; Postemergence, 31 g ai/ha, scale 0 to 100 (0 no effect, 100 complete control), 13 to 15 days, read-out: Plant response rating, Ragweed): 50%
- pest or weed control at 62 g/ha (ragweed; Postemergence, 62 g ai/ha, scale 0 to 100 (0 no effect, 100 complete control), read-out: Plant response rating, Ragweed): 55%
- plant injury at 62 g/ha (soybean [2]; 62 g ai/ha, preemergence, scale 0 (no effect) to 100 (complete control), read-out: Soybean plant response rating): 40%
- plant injury at 125 g/ha (soybean [2]; 125 g ai/ha, preemergence, scale 0 (no effect) to 100 (complete control), read-out: Soybean plant response rating): 60%
- plant injury at 250 g/ha (soybean [2]; 250 g ai/ha, preemergence, scale 0 (no effect) to 100 (complete control), read-out: Soybean plant response rating): 98%
- plant injury at 31 g/ha (soybean [2]; Preemergence, 31 g ai/ha, scale 0 to 100, 0 no effect, 100 complete control, read-out: Plant response rating, Soybean): 15%
- pest or weed control at 62 g/ha (large (Lg) crabgrass; 62 g ai/ha, preemergence, scale 0 (no effect) to 100 (complete control), read-out: Crabgrass, Large plant response rating): 98%
- pest or weed control at 125 g/ha (large (Lg) crabgrass; 125 g ai/ha, preemergence, scale 0 (no effect) to 100 (complete control), read-out: Crabgrass, Large plant response rating): 100%
- pest or weed control at 250 g/ha (large (Lg) crabgrass; 250 g ai/ha, preemergence, scale 0 (no effect) to 100 (complete control), read-out: Crabgrass, Large plant response rating): 100%
- pest or weed control at 31 g/ha (large (Lg) crabgrass; Preemergence, 31 g ai/ha, scale 0 to 100, 0 no effect, 100 complete control, read-out: Plant response rating, Crabgrass, Large): 80%
- pest or weed control at 125 g/ha (barnyardgrass; 125 g ai/ha, 0 to 100 scale where 0 is no effect and 100 is complete control): 80%
- pest or weed control at 500 g/ha (barnyardgrass; 500 g ai/ha, 0 to 100 scale, 0 no effect, 100 complete control, approx. 10 days): 100%
- pest or weed control at 125 g/ha (blackgrass [3]; 125 g ai/ha, postemergence, read-out: Plant response rating (0 to 100), Blackgrass): 45%
- pest or weed control at 250 g/ha (blackgrass [3]; 250 g ai/ha, postemergence, read-out: Plant response rating (0 to 100), Blackgrass): 50%
- pest or weed control at 31 g/ha (blackgrass [3]; Postemergence, 31 g ai/ha, scale 0 to 100 (0 no effect, 100 complete control), 13 to 15 days, read-out: Plant response rating, Blackgrass): 5%
- pest or weed control at 62 g/ha (blackgrass [3]; Postemergence, 62 g ai/ha, scale 0 to 100 (0 no effect, 100 complete control), read-out: Plant response rating, Blackgrass): 10%
- Soybean plant response rating (crop injury, 0-100 scale) at 125 g/ha (soybean [4]; 125 g ai/ha, postemergence, read-out: Plant response rating (0 to 100), Soybean): 98%
- Soybean plant response rating (crop injury, 0-100 scale) at 250 g/ha (soybean [4]; 250 g ai/ha, postemergence): 98%
- Soybean plant response rating (crop injury, 0-100 scale) at 31 g/ha (soybean [4]; Postemergence, 31 g ai/ha, scale 0 to 100 (0 no effect, 100 complete control), 13 to 15 days): 85%
- Soybean plant response rating (crop injury, 0-100 scale) at 62 g/ha (soybean [4]; Postemergence, 62 g ai/ha, scale 0 to 100 (0 no effect, 100 complete control)): 98%
- pest or weed control at 125 g/ha (giant foxtail; 125 g ai/ha, postemergence, read-out: Plant response rating (0 to 100), Foxtail, Giant): 10%
- pest or weed control at 250 g/ha (giant foxtail; 250 g ai/ha, postemergence, read-out: Plant response rating (0 to 100), Foxtail, Giant): 10%
- pest or weed control at 31 g/ha (giant foxtail; Postemergence, 31 g ai/ha, scale 0 to 100 (0 no effect, 100 complete control), 13 to 15 days, read-out: Plant response rating, Foxtail, Giant): 0%
- pest or weed control at 62 g/ha (giant foxtail; Postemergence, 62 g ai/ha, scale 0 to 100 (0 no effect, 100 complete control), read-out: Plant response rating, Foxtail, Giant): 5%
- plant injury at 125 g/ha (wheat; 125 g ai/ha, 0 to 100 scale where 0 is no effect and 100 is complete control, read-out: Plant response rating, Wheat): 30%
- plant injury at 500 g/ha (wheat; 500 g ai/ha, 0 to 100 scale, 0 no effect, 100 complete control, read-out: Plant response rating Wheat): 50%
- pest or weed control at 125 g/ha (morningglory; 125 g ai/ha, 0 to 100 scale where 0 is no effect and 100 is complete control, read-out: Plant response rating, Morningglory): 70%
- pest or weed control at 500 g/ha (morningglory; 500 g ai/ha, 0 to 100 scale, 0 no effect, 100 complete control, read-out: Plant response rating Morningglory): 100%

Reference: patent publication US9695155B2, “Herbicidal substituted pyrimidinyloxy benzene compounds” (E. I. DU PONT DE NEMOURS AND COMPANY, priority 2013, dated 2017)
